From ChEMBL document CHEMBL1201862, “PubChem BioAssay data set” (2004)
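A five-concentration, 48-hour dose response in 96-well plates underlies each endpoint, interpolated linearly between surrounding concentrations. Here, GI50 denotes the concentration required for 50% inhibition of growth.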 The source made the active and inactive calls. Cut-off read from the data, not from the text of the source: active = GI50 up to about 1.1 µM and inactive = higher.

Assays:
Assay in all cases: DTP human tumour cell line panel, 48 h
U-251 = test system: U-251
MOLT-4 = test system: MOLT-4
NCI-H23 = test system: NCI-H23
SK-MEL-28 = test system: SK-MEL-28
MDA-N = test system: MDA-N
EKVX = test system: EKVX
HL-60 = test system: HL-60
786-0 = test system: 786-0
UACC-62 = test system: UACC-62
CCRF-CEM = test system: CCRF-CEM
LOX IMVI = test system: LOX IMVI
OVCAR-5 = test system: OVCAR-5
SF-539 = test system: SF-539
RXF 393 = test system: RXF 393
MDA-MB-435 = test system: MDA-MB-435
MCF7 = test system: MCF7
SK-OV-3 = test system: SK-OV-3
MDA-MB-231 = test system: MDA-MB-231
SW-620 = test system: SW-620

| SMILES | GI50 (U-251) | GI50 (MOLT-4) | GI50 (NCI-H23) | GI50 (SK-MEL-28) | GI50 (MDA-N) | GI50 (EKVX) | GI50 (HL-60) | GI50 (786-0) | GI50 (UACC-62) | GI50 (CCRF-CEM) | GI50 (LOX IMVI) | GI50 (OVCAR-5) | GI50 (SF-539) | GI50 (RXF 393) | GI50 (MDA-MB-435) | GI50 (MCF7) | GI50 (SK-OV-3) | GI50 (MDA-MB-231) | GI50 (SW-620) |
| --- | --- | --- | --- | --- | --- | --- | --- | --- | --- | --- | --- | --- | --- | --- | --- | --- | --- | --- | --- |
| CCC(=O)C(CCN1CCC2(CCCc3ccccc32)CC1)(c1ccccc1)c1ccccc1 | 2.62 µM (inactive) | 1.41 µM (inactive) | 2.15 µM (inactive) | 4.65 µM (inactive) | 3.96 µM (inactive) | 4 µM (inactive) | 1.57 µM (inactive) | 2.12 µM (inactive) | 3.72 µM (inactive) | 1.78 µM (inactive) | 0.851 µM (active) | 3.74 µM (inactive) | 2.95 µM (inactive) | 2 µM (inactive) | 3.49 µM (inactive) | 2.86 µM (inactive) | 3.19 µM (inactive) | 2.51 µM (inactive) | 2.87 µM (inactive) |
| OC1c2c(ccc3c2CCC3)CC12Cc1ccccc1C2 (stereo not drawn) | 15.9 µM (inactive) | 26.6 µM (inactive) | 16.8 µM (inactive) | 16.6 µM (inactive) | 15.5 µM (inactive) | 16.4 µM (inactive) | 15.9 µM (inactive) | 17.1 µM (inactive) | 15.4 µM (inactive) | 23.2 µM (inactive) | 15.9 µM (inactive) | 17.2 µM (inactive) | 21.3 µM (inactive) | 13.8 µM (inactive) | 15.7 µM (inactive) | 18 µM (inactive) | 15.7 µM (inactive) | 15.2 µM (inactive) | 17.7 µM (inactive) |
| C(/Cc1ccc2c(c1)OCO2)=N\N=C1NCCCN1 | 75.7 µM (inactive) | 24.7 µM (inactive) | > 100 µM (inactive) | > 100 µM (inactive) | > 100 µM (inactive) | 48.9 µM (inactive) | 31.6 µM (inactive) | 78.2 µM (inactive) | > 100 µM (inactive) | 48.5 µM (inactive) | 29.4 µM (inactive) | 59 µM (inactive) | 50.5 µM (inactive) | 42.9 µM (inactive) | > 100 µM (inactive) | 26.9 µM (inactive) | 42.1 µM (inactive) | > 100 µM (inactive) | > 100 µM (inactive) |
| Cc1ccc2c(c1)C(=O)C1(C2)Cc2c(C)cccc2C1=O (stereo not drawn) | > 100 µM (inactive) | > 100 µM (inactive) | > 100 µM (inactive) | > 100 µM (inactive) | > 100 µM (inactive) | > 100 µM (inactive) | > 100 µM (inactive) | > 100 µM (inactive) | > 100 µM (inactive) | > 100 µM (inactive) | > 100 µM (inactive) | > 100 µM (inactive) | > 100 µM (inactive) | > 100 µM (inactive) | > 100 µM (inactive) | > 100 µM (inactive) | > 100 µM (inactive) | > 100 µM (inactive) | > 100 µM (inactive) |
| Cc1ccc(S(=O)(=O)N/C(=N\O)Nc2ccc(Cl)c(Cl)c2)cc1 | 4.36 µM (inactive) | 1.98 µM (inactive) | 15.7 µM (inactive) | 3.34 µM (inactive) | 3.57 µM (inactive) | 5.92 µM (inactive) | 1.87 µM (inactive) | 4.6 µM (inactive) | 11.7 µM (inactive) | 2.42 µM (inactive) | 4.11 µM (inactive) | 3.2 µM (inactive) | 12.1 µM (inactive) | 9.84 µM (inactive) | 3.48 µM (inactive) | 17.5 µM (inactive) | 15 µM (inactive) | 9.98 µM (inactive) | 11.2 µM (inactive) |
| O=S(=O)(/N=C(\NO)Nc1ccc(Cl)cc1)C1CC=C(c2ccon2)S1 (stereo not drawn) | 15.8 µM (inactive) | 3.34 µM (inactive) | 13.2 µM (inactive) | 23.5 µM (inactive) | 6.04 µM (inactive) | 31 µM (inactive) | 1.18 µM (inactive) | 2.88 µM (inactive) | 24.5 µM (inactive) | 12.2 µM (inactive) | 21 µM (inactive) | > 66.2 µM (inactive) | 1.2 µM (inactive) | 6.31 µM (inactive) | 8.91 µM (inactive) | 16.1 µM (inactive) | > 100 µM (inactive) | 18.4 µM (inactive) | 5.78 µM (inactive) |
| COc1cc2c(c(OC)c1)C(=O)O[C@H](C)CCCC/C=C/C2 | 9.79 µM (inactive) | 7.31 µM (inactive) | 11.2 µM (inactive) | 23.2 µM (inactive) | 8.63 µM (inactive) | 11.7 µM (inactive) | 0.824 µM (active) | 10.9 µM (inactive) | 8.93 µM (inactive) | 2.26 µM (inactive) | 4.73 µM (inactive) | 15.1 µM (inactive) | 10.9 µM (inactive) | 9.95 µM (inactive) | 4.73 µM (inactive) | 11.6 µM (inactive) | 45.9 µM (inactive) | 10.9 µM (inactive) | 7.94 µM (inactive) |
